US10723724B2, “Compounds for treating degenerative diseases of central nervous system or brain tumor, and uses thereof” (SUN YAT-SEN UNIVERSITY, priority 2016, dated 2020)

Legend:
CSNK1E (CK1 epsilon) = target: T1, CSNK1E (CK1 epsilon) (Homo sapiens, UniProt P49674); test: Kinase screening service: CSNK1E; format: biochemical; details: average of duplicates
T1 construct: purchased Life Technologies Corporation (Kinase Screening Service)
Description: (§1) The inhibitory effect of PT109 on other kinases including SGK and JNK was detected by the Kinase Screening Service of Life Technologies Corporation (The concentration of compound 9 was 10 μM, measurements were performed in duplicates, and the value was represented by an average) to investigate the selectivity of the compound for JNK and SGK1.

PRKCG (PKC gamma) = target: T2, PRKCG (PKC gamma) (Homo sapiens, UniProt P05129); test: Kinase screening service: PRKCG; format: biochemical; details: average of duplicates
T2 construct: purchased Life Technologies Corporation (Kinase Screening Service)
Description: as §1

SGK2 = target: T3, SGK2 (Homo sapiens, UniProt Q9HBY8); test: Kinase screening service (Life Technologies): SGK2; format: biochemical
T3 construct: purchased Life Technologies Corporation (kinase screening service)
Source text: (§2) The inhibitory effect of PT109 on SGK and INK was detected by the kinase screening commercialization service of Life Technologies Corporation.

HCK = target: T4, HCK (Homo sapiens, UniProt P08631); test: Kinase screening service: HCK; format: biochemical; details: average of duplicates
T4 construct: purchased Life Technologies Corporation (Kinase Screening Service)
Description: as §1

MAPK1 (ERK2) = target: T5, MAPK1 (ERK2) (Homo sapiens, UniProt P28482); test: Kinase screening service: MAPK1; format: biochemical; details: average of duplicates
T5 construct: purchased Life Technologies Corporation (Kinase Screening Service)
Description: as §1

GRK5 = target: T6, GRK5 (Homo sapiens, UniProt P34947); test: Kinase screening service: GRK5; format: biochemical; details: average of duplicates
T6 construct: purchased Life Technologies Corporation (Kinase Screening Service)
Description: as §1

FGFR1 = target: T7, FGFR1 (Homo sapiens, UniProt P11362); test: Kinase screening service: FGFR1; format: biochemical; details: average of duplicates
T7 construct: purchased Life Technologies Corporation (Kinase Screening Service)
Description: as §1

CSNK1A1 (CK1 alpha 1) = target: T8, CSNK1A1 (CK1 alpha 1) (Homo sapiens, UniProt P48729); test: Kinase screening service: CSNK1A1; format: biochemical; details: average of duplicates
T8 construct: purchased Life Technologies Corporation (Kinase Screening Service)
Description: as §1

[1] = In vitro blood-brain barrier permeability (PBL artificial membrane); format: in vitro ADME
Description: 1) 4 μL of 2% PBL solution was added to the hydrophobic membrane of a MAIPn 4550 96-well plate. During the dripping process, it should be noted that the pipette tip should not touch the surface of the membrane to avoid the damage to the membrane structure.
2) 200 μL of the test sample solution (0.1 mg/ml) was quickly (within 10 min) and quantitatively pipetted, and added to the upside of the membrane of the 96-well plate as a donor compartment. 200 μL of PBS (pH=7.4) was added to the other side of the membrane as an acceptor compartment. It should be noted that the acceptor solution should keep being in full contact with the membrane.
3) The donor compartment was carefully removed upon standing for 120 min at room temperature, and the absorbance of the compound (250-500 nm) in the acceptor compartment was tested by UV spectrometer.
4) 100 μL of the test sample solution was fully mixed with 100 μL of PBS, and the mixture was used as a theoretical equilibrium solution. Its absorbance (250-500 nm) was measured and tested with an acceptor plate.
5) The log Pe value was calculated by the following equation: […]
wherein Vd is the volume of the donor compartment, Va is the volume of the acceptor compartment, A is the membrane area, t is the penetration time, [drug]acceptor is the absorbance of the acceptor compartment, and [drug]equilibrium is the absorbance of theoretical equilibrium. […]

HIPK1 (Myak) = target: T9, HIPK1 (Myak) (Homo sapiens, UniProt Q86Z02); test: Kinase screening service: HIPK1; format: biochemical; details: average of duplicates
T9 construct: purchased Life Technologies Corporation (Kinase Screening Service)
Description: as §1

PLK4 = target: T10, PLK4 (Homo sapiens, UniProt O00444); test: Kinase screening service: PLK4; format: biochemical; details: average of duplicates
T10 construct: purchased Life Technologies Corporation (Kinase Screening Service)
Description: as §1

AKT1 (PKB alpha) = target: T11, AKT1 (PKB alpha) (Homo sapiens, UniProt P31749); test: Kinase screening service: AKT1; format: biochemical; details: average of duplicates
T11 construct: purchased Life Technologies Corporation (Kinase Screening Service)
Description: as §1

ULK2 = target: T12, ULK2 (Homo sapiens, UniProt Q8IYT8); test: Kinase screening service: ULK2; format: biochemical; details: average of duplicates
T12 construct: purchased Life Technologies Corporation (Kinase Screening Service)
Description: as §1

SLK = target: T13, SLK (Homo sapiens, UniProt Q9H2G2); test: Kinase screening service: SLK; format: biochemical; details: average of duplicates
T13 construct: purchased Life Technologies Corporation (Kinase Screening Service)
Description: as §1

CSNK1G2 (CK1 gamma 2) = target: T14, CSNK1G2 (CK1 gamma 2) (Homo sapiens, UniProt P78368); test: Kinase screening service: CSNK1G2; format: biochemical; details: average of duplicates
T14 construct: purchased Life Technologies Corporation (Kinase Screening Service)
Description: as §1

PIK3C2A (PI3K-C2 alpha) = target: T15, PIK3C2A (PI3K-C2 alpha) (Homo sapiens, UniProt O00443); test: Kinase screening service: PIK3C2A; format: biochemical; details: average of duplicates
T15 construct: purchased Life Technologies Corporation (Kinase Screening Service)
Description: as §1

FLT1 (VEGFR1) = target: T16, FLT1 (VEGFR1) (Homo sapiens, UniProt P17948); test: Kinase screening service: FLT1; format: biochemical; details: average of duplicates
T16 construct: purchased Life Technologies Corporation (Kinase Screening Service)
Description: as §1

NEK4 = target: T17, NEK4 (Homo sapiens, UniProt P51957); test: Kinase screening service: NEK4; format: biochemical; details: average of duplicates
T17 construct: purchased Life Technologies Corporation (Kinase Screening Service)
Description: as §1

HT-22 cells = test: Effect on ROS (DHE staining) in HT-22 cells; format: cell-based; details: PT109 at 10 μM, 2 mM glutamine 10 h
Description: DHE staining was adopted to detect the formation of oxygen free radicals. The HT-22 cells were cultured in DMEM+10% fetal bovine serum and placed in a 5% CO2 incubator at 37° C. The cells were seeded in a poly-lysine-coated 24-well plate at a suitable density. After cell adherence, the PT109 separately prepared in the medium was added to the corresponding wells. Upon treatment for 30 min, 2 mM glutamine was added and treated for 10 h. The cells were harvested, and incubated with DHE dye for about 30 min. DHE dye was washed, and the fluorescence intensity of DHE was detected by a high-content system.

TAOK2 (TAO1) = target: T18, TAOK2 (TAO1) (Homo sapiens, UniProt Q9UL54); test: Kinase screening service: TAOK2; format: biochemical; details: average of duplicates
T18 construct: purchased Life Technologies Corporation (Kinase Screening Service)
Description: as §1

SRMS (Srm) = target: T19, SRMS (Srm) (Homo sapiens, UniProt Q9H3Y6); test: Kinase screening service: SRMS; format: biochemical; details: average of duplicates
T19 construct: purchased Life Technologies Corporation (Kinase Screening Service)
Description: as §1

SGK3 = target: T20, SGK3 (Homo sapiens, UniProt Q96BR1); test: Kinase screening service (Life Technologies): SGK3; format: biochemical
T20 construct: purchased Life Technologies Corporation (kinase screening service)
Source text: as §2

PDGFRB (PDGFR beta) = target: T21, PDGFRB (PDGFR beta) (Homo sapiens, UniProt P09619); test: Kinase screening service: PDGFRB; format: biochemical; details: average of duplicates
T21 construct: purchased Life Technologies Corporation (Kinase Screening Service)
Description: as §1

TLK1 = target: T22, TLK1 (Homo sapiens, UniProt Q9UKI8); test: Kinase screening service: TLK1; format: biochemical; details: average of duplicates
T22 construct: purchased Life Technologies Corporation (Kinase Screening Service)
Description: as §1

GSK3A (GSK3 alpha) = target: T23, GSK3A (GSK3 alpha) (Homo sapiens, UniProt P49840); test: Kinase screening service: GSK3A; format: biochemical; details: average of duplicates
T23 construct: purchased Life Technologies Corporation (Kinase Screening Service)
Description: as §1

PDK1 = target: T24, PDK1 (Homo sapiens, UniProt O15530); test: Kinase screening service: PDK1; format: biochemical; details: average of duplicates
T24 construct: purchased Life Technologies Corporation (Kinase Screening Service)
Description: as §1

T21 sequence (P09619 33-1106): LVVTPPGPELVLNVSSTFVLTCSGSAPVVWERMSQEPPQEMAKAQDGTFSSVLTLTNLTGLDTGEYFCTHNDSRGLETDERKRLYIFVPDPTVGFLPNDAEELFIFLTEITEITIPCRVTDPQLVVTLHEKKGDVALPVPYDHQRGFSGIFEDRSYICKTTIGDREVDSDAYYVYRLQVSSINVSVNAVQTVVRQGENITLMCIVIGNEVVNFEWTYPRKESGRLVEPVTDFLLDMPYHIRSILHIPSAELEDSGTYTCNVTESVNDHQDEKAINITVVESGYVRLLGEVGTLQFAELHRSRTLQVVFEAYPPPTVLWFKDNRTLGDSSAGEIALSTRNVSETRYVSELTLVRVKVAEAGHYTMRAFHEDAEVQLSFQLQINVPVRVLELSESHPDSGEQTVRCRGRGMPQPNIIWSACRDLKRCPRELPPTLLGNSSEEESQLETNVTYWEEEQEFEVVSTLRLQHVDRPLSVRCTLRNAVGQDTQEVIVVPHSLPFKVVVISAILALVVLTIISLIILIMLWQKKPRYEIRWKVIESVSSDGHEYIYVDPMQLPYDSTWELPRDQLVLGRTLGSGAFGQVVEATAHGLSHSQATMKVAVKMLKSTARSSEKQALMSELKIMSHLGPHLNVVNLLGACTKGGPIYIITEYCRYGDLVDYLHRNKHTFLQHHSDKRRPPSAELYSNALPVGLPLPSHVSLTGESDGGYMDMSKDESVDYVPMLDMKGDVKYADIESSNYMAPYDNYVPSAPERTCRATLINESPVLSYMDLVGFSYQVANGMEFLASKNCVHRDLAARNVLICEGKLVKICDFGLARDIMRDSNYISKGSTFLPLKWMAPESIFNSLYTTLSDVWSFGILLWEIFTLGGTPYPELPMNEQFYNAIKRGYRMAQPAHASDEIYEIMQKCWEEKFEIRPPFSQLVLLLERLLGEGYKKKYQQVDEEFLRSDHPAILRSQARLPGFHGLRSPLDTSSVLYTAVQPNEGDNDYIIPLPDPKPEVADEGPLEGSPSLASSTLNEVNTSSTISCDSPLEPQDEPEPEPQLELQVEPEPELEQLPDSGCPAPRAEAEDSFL
T11 sequence (P31749 whole entry): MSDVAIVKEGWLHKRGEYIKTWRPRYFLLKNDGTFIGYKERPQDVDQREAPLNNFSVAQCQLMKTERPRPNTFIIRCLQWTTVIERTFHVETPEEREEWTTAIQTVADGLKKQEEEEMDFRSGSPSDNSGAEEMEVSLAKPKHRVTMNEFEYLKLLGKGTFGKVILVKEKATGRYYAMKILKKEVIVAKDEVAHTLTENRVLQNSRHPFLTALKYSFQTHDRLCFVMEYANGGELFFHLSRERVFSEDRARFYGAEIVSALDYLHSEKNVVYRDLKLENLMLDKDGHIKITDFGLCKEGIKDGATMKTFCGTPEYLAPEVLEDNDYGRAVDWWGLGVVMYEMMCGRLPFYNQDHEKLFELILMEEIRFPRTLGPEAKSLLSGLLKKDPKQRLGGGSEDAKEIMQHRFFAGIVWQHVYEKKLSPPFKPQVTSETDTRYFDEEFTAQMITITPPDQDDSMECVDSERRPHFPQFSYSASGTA
T10 sequence (O00444 whole entry): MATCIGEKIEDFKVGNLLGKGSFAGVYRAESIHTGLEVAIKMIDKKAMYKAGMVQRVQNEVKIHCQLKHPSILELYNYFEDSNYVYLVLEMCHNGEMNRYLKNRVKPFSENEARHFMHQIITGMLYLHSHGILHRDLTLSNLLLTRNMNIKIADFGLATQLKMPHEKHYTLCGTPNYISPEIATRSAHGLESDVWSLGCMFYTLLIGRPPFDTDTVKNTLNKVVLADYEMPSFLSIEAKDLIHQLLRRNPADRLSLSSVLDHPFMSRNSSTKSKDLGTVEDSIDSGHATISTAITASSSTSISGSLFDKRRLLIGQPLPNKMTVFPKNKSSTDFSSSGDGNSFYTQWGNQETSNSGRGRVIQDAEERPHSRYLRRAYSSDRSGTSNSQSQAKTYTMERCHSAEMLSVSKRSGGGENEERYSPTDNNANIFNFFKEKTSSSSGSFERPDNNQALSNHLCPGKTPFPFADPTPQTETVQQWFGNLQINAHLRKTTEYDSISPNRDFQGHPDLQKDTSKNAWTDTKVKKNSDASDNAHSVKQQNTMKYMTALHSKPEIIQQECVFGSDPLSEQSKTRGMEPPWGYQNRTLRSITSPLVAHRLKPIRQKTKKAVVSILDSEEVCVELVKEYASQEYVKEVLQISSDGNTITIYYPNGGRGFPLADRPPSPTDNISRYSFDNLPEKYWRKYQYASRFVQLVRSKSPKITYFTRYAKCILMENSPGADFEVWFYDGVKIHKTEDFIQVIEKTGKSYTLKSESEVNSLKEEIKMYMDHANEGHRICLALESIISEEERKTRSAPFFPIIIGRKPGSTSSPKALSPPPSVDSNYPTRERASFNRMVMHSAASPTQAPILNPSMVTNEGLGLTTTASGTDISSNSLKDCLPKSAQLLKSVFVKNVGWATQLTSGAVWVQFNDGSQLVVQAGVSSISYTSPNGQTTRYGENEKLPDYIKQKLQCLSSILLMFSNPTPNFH
T17 sequence (P51957 whole entry): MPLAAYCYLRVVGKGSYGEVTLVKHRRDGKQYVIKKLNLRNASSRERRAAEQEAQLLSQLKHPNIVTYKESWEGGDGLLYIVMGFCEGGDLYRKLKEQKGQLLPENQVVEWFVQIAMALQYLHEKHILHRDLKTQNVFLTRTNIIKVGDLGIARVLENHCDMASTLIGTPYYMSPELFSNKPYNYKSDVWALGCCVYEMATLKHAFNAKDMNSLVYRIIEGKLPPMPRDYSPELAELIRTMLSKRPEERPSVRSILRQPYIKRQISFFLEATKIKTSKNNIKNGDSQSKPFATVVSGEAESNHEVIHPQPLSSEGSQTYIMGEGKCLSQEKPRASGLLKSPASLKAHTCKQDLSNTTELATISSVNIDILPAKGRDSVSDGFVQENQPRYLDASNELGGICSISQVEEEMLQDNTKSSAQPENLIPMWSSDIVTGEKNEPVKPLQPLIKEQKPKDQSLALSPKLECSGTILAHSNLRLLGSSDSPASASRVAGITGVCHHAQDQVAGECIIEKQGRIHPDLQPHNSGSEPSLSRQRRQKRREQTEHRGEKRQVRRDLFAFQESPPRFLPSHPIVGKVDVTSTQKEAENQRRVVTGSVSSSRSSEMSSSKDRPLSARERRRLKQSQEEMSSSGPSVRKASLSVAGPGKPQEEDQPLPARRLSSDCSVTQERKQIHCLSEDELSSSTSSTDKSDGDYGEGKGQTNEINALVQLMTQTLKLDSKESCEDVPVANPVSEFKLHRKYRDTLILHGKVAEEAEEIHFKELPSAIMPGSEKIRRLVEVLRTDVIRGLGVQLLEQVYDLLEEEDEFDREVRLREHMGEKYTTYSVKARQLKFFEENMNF
T19 sequence (Q9H3Y6 whole entry): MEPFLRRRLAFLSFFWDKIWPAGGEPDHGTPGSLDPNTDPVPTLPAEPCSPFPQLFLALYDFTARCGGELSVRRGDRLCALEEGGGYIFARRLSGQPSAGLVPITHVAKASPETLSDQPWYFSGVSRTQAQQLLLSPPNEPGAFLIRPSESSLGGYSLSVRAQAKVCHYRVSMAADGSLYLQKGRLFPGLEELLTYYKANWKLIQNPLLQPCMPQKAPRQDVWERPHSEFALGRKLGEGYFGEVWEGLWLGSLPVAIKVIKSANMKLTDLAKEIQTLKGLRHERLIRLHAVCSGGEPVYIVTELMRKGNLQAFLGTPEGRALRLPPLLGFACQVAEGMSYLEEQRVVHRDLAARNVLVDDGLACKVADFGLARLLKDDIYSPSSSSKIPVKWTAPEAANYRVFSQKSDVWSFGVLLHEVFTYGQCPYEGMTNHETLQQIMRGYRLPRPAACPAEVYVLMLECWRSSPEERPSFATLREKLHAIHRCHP
T12 sequence (Q8IYT8 whole entry): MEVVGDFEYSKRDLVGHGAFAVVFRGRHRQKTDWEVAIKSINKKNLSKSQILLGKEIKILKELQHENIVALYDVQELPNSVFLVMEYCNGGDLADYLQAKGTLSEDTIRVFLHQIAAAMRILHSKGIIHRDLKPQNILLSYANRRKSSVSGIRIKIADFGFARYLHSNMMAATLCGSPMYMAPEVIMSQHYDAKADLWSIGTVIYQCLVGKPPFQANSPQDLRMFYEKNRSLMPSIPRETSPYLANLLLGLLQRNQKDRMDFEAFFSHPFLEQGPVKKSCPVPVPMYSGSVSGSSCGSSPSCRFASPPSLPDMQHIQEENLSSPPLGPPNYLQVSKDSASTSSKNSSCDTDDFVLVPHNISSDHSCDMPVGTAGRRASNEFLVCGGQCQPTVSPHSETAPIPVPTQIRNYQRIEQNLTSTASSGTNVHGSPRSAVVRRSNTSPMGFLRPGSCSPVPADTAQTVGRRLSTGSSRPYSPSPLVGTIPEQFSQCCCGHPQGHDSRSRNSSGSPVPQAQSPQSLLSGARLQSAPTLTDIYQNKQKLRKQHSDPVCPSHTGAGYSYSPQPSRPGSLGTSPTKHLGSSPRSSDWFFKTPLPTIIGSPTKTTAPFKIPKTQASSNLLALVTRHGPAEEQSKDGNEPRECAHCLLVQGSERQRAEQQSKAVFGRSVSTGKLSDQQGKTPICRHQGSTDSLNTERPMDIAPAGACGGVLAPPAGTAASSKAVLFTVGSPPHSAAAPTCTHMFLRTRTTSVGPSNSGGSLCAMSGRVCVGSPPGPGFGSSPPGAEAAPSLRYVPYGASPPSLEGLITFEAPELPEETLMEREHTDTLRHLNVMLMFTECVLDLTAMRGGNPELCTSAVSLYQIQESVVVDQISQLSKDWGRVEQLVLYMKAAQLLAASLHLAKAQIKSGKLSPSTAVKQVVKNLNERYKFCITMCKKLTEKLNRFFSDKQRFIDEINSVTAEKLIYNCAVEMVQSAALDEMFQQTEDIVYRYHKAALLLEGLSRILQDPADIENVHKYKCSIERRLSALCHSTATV

## O=C(CCCCC1CCSS1)NC1CCC(Nc2cccc3cnccc23)CC1 (stereo not drawn) [PT109, 5-(1,2-dithiolan-3-yl)-N-(4-(isoquinolin-5-ylamino)cyclohexyl) pentanamide]
CSNK1E (CK1 epsilon)
  inhibition at 10 µM: 10%
PRKCG (PKC gamma)
  inhibition at 10 µM: 63%
SGK2
  IC50: 5.6 µM
HCK
  inhibition at 10 µM: 9%
MAPK1 (ERK2)
  inhibition at 10 µM: 4%
GRK5
  inhibition at 10 µM: 2%
FGFR1
  inhibition at 10 µM: -3%
CSNK1A1 (CK1 alpha 1)
  inhibition at 10 µM: 3%
[1]; PAMPA, PBL membrane, PBS pH=7.4, 120 min, room temperature, read-out: Pe
  Papp at 120 min, 0.1 mg/ml: 11.93 ± 0.08 ×10⁻⁶ cm/s
[1]; from Pe
  Prediction: CNS+ (If Pe×10^−6 cm s^−1 value is greater than 5.3, the compound is able to cross the blood-brain barrier)
HIPK1 (Myak)
  inhibition at 10 µM: 0%
PLK4
  inhibition at 10 µM: 35%
AKT1 (PKB alpha)
  inhibition at 10 µM: 22%
ULK2
  inhibition at 10 µM: 4%
SLK
  inhibition at 10 µM: 5%
CSNK1G2 (CK1 gamma 2)
  inhibition at 10 µM: 15%
PIK3C2A (PI3K-C2 alpha)
  inhibition at 10 µM: 3%
FLT1 (VEGFR1)
  inhibition at 10 µM: 3%
NEK4
  inhibition at 10 µM: 3%
HT-22 cells
  glutamine-induced ROS elevation (DHE fluorescence): significantly reduced
TAOK2 (TAO1)
  inhibition at 10 µM: -6%
SRMS (Srm)
  inhibition at 10 µM: 20%
SGK3
  IC50: 26.4 µM
PDGFRB (PDGFR beta)
  inhibition at 10 µM: 7%
TLK1
  inhibition at 10 µM: 20%
GSK3A (GSK3 alpha)
  inhibition at 10 µM: 41%
PDK1
  inhibition at 10 µM: 5%
